This assay addresses T1, CB1 receptor (Rattus norvegicus, UniProt P20272).
T1 construct: gene Cnr1
The experiment in a line: Pink Flamindo cAMP assay in CB1-transfected HEK293 cells, antagonism of 2-AG; also reverses bath-applied 2-AG in autaptic neurons. The class given is cell-based. On the technique in general: Changes in cAMP serve as a functional read-out for many G protein-coupled receptors.

T1 sequence (P20272 whole entry): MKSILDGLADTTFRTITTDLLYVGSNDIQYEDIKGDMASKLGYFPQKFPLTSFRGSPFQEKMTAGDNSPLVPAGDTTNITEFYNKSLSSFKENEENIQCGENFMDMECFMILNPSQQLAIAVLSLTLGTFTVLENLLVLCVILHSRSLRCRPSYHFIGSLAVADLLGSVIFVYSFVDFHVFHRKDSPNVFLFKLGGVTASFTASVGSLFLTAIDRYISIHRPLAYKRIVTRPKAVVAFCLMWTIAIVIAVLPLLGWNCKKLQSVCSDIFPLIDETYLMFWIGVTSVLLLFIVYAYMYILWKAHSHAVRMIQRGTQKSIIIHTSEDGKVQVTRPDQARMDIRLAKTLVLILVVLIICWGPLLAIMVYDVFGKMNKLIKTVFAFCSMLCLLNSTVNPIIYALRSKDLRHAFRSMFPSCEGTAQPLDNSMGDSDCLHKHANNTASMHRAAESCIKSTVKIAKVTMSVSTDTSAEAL

One may read the IC50 as the midpoint of a concentration-inhibition curve. Read a low IC50 as greater potency. `CCCc1cc(O)c2c(c1)OC(C)(C)[C@@H]1CCC(C)=C[C@@H]21` [THCV, Δ^9-tetrahydrocannabivarin] displayed a half-inhibitory concentration (IC50) of 7.3 nM.

Source of the values: publication PMC8434068, “An Evaluation of Understudied Phytocannabinoids and Their Effects in Two Neuronal Models” (Molecules, 2021).
